Measured values as given in ChEMBL document CHEMBL3885881, “DrugMatrix”.

Species on record: Rattus norvegicus
Assay: DrugMatrix - Regimen: Daily Repeat
Assay type: toxicity, organism-based, Sprague-Dawley
Design: regimen Daily Repeat, gender Male, age 6-8 weeks
Details: in vivo; for ABSOLUTE BASOPHIL / ABSOLUTE EOSINOPHIL / ABSOLUTE LYMPHOCYTE / ABSOLUTE MONOCYTE / ABSOLUTE SEGMENTED NEUTROPHIL / BASOPHIL / EOSINOPHIL / ERYTHROCYTE COUNT / HEMATOCRIT / HEMOGLOBIN / LEUKOCYTE COUNT / LYMPHOCYTE / MEAN CORPUSCULAR HEMOGLOBIN / MEAN CORPUSCULAR HEMOGLOBIN CONCENTRATION / MEAN CORPUSCULAR VOLUME / MONOCYTE / NEUTROPHIL / NUCLEATED RED BLOOD CELLS / PLATELET COUNT: tissue Blood; for ALANINE AMINOTRANSFERASE / ALBUMIN / ALKALINE PHOSPHATASE / ASPARTATE AMINOTRANSFERASE / BLOOD UREA NITROGEN / CARBON DIOXIDE / CHLORIDE / CHOLESTEROL / CREATINE PHOSPHOKINASE / CREATININE / GLUCOSE / LACTATE DEHYDROGENASE / LIPASE / PHOSPHORUS / POTASSIUM / SODIUM / TOTAL BILIRUBIN / TOTAL PROTEIN / URIC ACID: tissue Plasma
[1] = iv, 0.02 mg/kg, 72 h, dose level Low, time 3 day, vehicle 100 % SALINE
[2] = iv, 0.02 mg/kg, 120 h, dose level Low, time 5 day, vehicle 100 % SALINE
[3] = iv, 43 mg/kg, 72 h, dose level High, time 3 day, vehicle 100 % SALINE
[4] = iv, 43 mg/kg, 120 h, dose level High, time 5 day, vehicle 100 % SALINE
[5] = po, 0 mg/kg, 72 h, route oral GAVAGE, dose level Control, time 3 day, […]

CC(CCc1ccc(O)cc1)NCCc1ccc(O)c(O)c1 (configuration not stated) [DOBUTAMINE]
ABSOLUTE BASOPHIL [1]: 0 CELLS/uL | ABSOLUTE EOSINOPHIL [1]: 0 CELLS/uL | ABSOLUTE LYMPHOCYTE [1]: 16404 CELLS/uL | ABSOLUTE MONOCYTE [1]: 67.67 CELLS/uL | ABSOLUTE SEGMENTED NEUTROPHIL [1]: 1828.33 CELLS/uL | BASOPHIL [1]: 0% | EOSINOPHIL [1]: 0% | ERYTHROCYTE COUNT [1]: 5.5 x10E6/uL | HEMATOCRIT [1]: 35.6% | HEMOGLOBIN [1]: 13.9 G/DL | LEUKOCYTE COUNT [1]: 18.3 x10E3/uL | LYMPHOCYTE [1]: 89.67% | MEAN CORPUSCULAR HEMOGLOBIN [1]: 25.27 pg | MEAN CORPUSCULAR HEMOGLOBIN CONCENTRATION [1]: 39.03 G/DL | MEAN CORPUSCULAR VOLUME [1]: 64.67 fL | MONOCYTE [1]: 0.33% | NEUTROPHIL [1]: 10% | NUCLEATED RED BLOOD CELLS [1]: 0 /100WBC | PLATELET COUNT [1]: 1067.33 x10E3/uL | ALANINE AMINOTRANSFERASE [1]: 57.33 u/L | ALBUMIN [1]: 4.07 G/DL | ALKALINE PHOSPHATASE [1]: 391.33 u/L | ASPARTATE AMINOTRANSFERASE [1]: 107.33 u/L | BLOOD UREA NITROGEN [1]: 15.67 mg/dL | CARBON DIOXIDE [1]: 28 mmol/L | CHLORIDE [1]: 97.33 MEQ/L | CHOLESTEROL [1]: 78 mg/dL | CREATINE PHOSPHOKINASE [1]: 548.67 u/L | CREATININE [1]: 0.13 mg/dL | GLUCOSE [1]: 175.33 mg/dL | LACTATE DEHYDROGENASE [1]: 236 u/L | LIPASE [1]: 10.33 u/L | PHOSPHORUS [1]: 12.27 mg/dL | POTASSIUM [1]: 7.46 MEQ/L | SODIUM [1]: 141.6 MEQ/L | TOTAL BILIRUBIN [1]: 0.3 mg/dL | TOTAL PROTEIN [1]: 5.77 G/DL | URIC ACID [1]: 1.63 mg/dL | ABSOLUTE BASOPHIL [2]: 0 CELLS/uL | ABSOLUTE EOSINOPHIL [2]: 0 CELLS/uL | ABSOLUTE LYMPHOCYTE [2]: 19433.33 CELLS/uL | ABSOLUTE MONOCYTE [2]: 145.67 CELLS/uL | ABSOLUTE SEGMENTED NEUTROPHIL [2]: 1621 CELLS/uL | BASOPHIL [2]: 0% | EOSINOPHIL [2]: 0% | ERYTHROCYTE COUNT [2]: 5.54 x10E6/uL | HEMATOCRIT [2]: 35.5% | HEMOGLOBIN [2]: 14 G/DL | LEUKOCYTE COUNT [2]: 21.2 x10E3/uL | LYMPHOCYTE [2]: 92% | MEAN CORPUSCULAR HEMOGLOBIN [2]: 25.27 pg | MEAN CORPUSCULAR HEMOGLOBIN CONCENTRATION [2]: 39.47 G/DL | MEAN CORPUSCULAR VOLUME [2]: 64.03 fL | MONOCYTE [2]: 0.67% | NEUTROPHIL [2]: 7.33% | NUCLEATED RED BLOOD CELLS [2]: 0.33 /100WBC | PLATELET COUNT [2]: 1240.33 x10E3/uL | ALANINE AMINOTRANSFERASE [2]: 61 u/L | ALBUMIN [2]: 4.03 G/DL | ALKALINE PHOSPHATASE [2]: 438.67 u/L | ASPARTATE AMINOTRANSFERASE [2]: 84.33 u/L | BLOOD UREA NITROGEN [2]: 18.67 mg/dL | CARBON DIOXIDE [2]: 27.33 mmol/L | CHLORIDE [2]: 101.33 MEQ/L | CHOLESTEROL [2]: 73.33 mg/dL | CREATINE PHOSPHOKINASE [2]: 325 u/L | CREATININE [2]: 0.14 mg/dL | GLUCOSE [2]: 163 mg/dL | LACTATE DEHYDROGENASE [2]: 262.67 u/L | LIPASE [2]: 8.67 u/L | PHOSPHORUS [2]: 11.8 mg/dL | POTASSIUM [2]: 7.21 MEQ/L | SODIUM [2]: 140.77 MEQ/L | TOTAL BILIRUBIN [2]: 0.13 mg/dL | TOTAL PROTEIN [2]: 6.03 G/DL | URIC ACID [2]: 1.63 mg/dL | ABSOLUTE BASOPHIL [3]: 0 CELLS/uL | ABSOLUTE EOSINOPHIL [3]: 0 CELLS/uL | ABSOLUTE LYMPHOCYTE [3]: 11605 CELLS/uL | ABSOLUTE MONOCYTE [3]: 107 CELLS/uL | ABSOLUTE SEGMENTED NEUTROPHIL [3]: 488 CELLS/uL | BASOPHIL [3]: 0% | EOSINOPHIL [3]: 0% | ERYTHROCYTE COUNT [3]: 5.51 x10E6/uL | HEMATOCRIT [3]: 36.1% | HEMOGLOBIN [3]: 14.37 G/DL | LEUKOCYTE COUNT [3]: 12.2 x10E3/uL | LYMPHOCYTE [3]: 95% | MEAN CORPUSCULAR HEMOGLOBIN [3]: 26.1 pg | MEAN CORPUSCULAR HEMOGLOBIN CONCENTRATION [3]: 39.8 G/DL | MEAN CORPUSCULAR VOLUME [3]: 65.6 fL | MONOCYTE [3]: 1% | NEUTROPHIL [3]: 4% | NUCLEATED RED BLOOD CELLS [3]: 0 /100WBC | PLATELET COUNT [3]: 1374.33 x10E3/uL | ALANINE AMINOTRANSFERASE [3]: 75.67 u/L | ALBUMIN [3]: 4.37 G/DL | ALKALINE PHOSPHATASE [3]: 486 u/L | ASPARTATE AMINOTRANSFERASE [3]: 91 u/L | BLOOD UREA NITROGEN [3]: 18 mg/dL | CARBON DIOXIDE [3]: 29.67 mmol/L | CHLORIDE [3]: 98.33 MEQ/L | CHOLESTEROL [3]: 67.33 mg/dL | CREATINE PHOSPHOKINASE [3]: 326 u/L | CREATININE [3]: 0.19 mg/dL | GLUCOSE [3]: 190 mg/dL | LACTATE DEHYDROGENASE [3]: 114.33 u/L | LIPASE [3]: 10 u/L | PHOSPHORUS [3]: 13.03 mg/dL | POTASSIUM [3]: 6.8 MEQ/L | SODIUM [3]: 143.43 MEQ/L | TOTAL BILIRUBIN [3]: 0.17 mg/dL | TOTAL PROTEIN [3]: 6.27 G/DL | URIC ACID [3]: 2.17 mg/dL | ABSOLUTE BASOPHIL [4]: 0 CELLS/uL | ABSOLUTE EOSINOPHIL [4]: 0 CELLS/uL | ABSOLUTE LYMPHOCYTE [4]: 14283 CELLS/uL | ABSOLUTE MONOCYTE [4]: 137.67 CELLS/uL | ABSOLUTE SEGMENTED NEUTROPHIL [4]: 1112.67 CELLS/uL | BASOPHIL [4]: 0% | EOSINOPHIL [4]: 0% | ERYTHROCYTE COUNT [4]: 5.95 x10E6/uL | HEMATOCRIT [4]: 37.37% | HEMOGLOBIN [4]: 14.87 G/DL | LEUKOCYTE COUNT [4]: 15.53 x10E3/uL | LYMPHOCYTE [4]: 91.33% | MEAN CORPUSCULAR HEMOGLOBIN [4]: 25.13 pg | MEAN CORPUSCULAR HEMOGLOBIN CONCENTRATION [4]: 39.87 G/DL | MEAN CORPUSCULAR VOLUME [4]: 63.03 fL | MONOCYTE [4]: 1% | NEUTROPHIL [4]: 7.67% | NUCLEATED RED BLOOD CELLS [4]: 0 /100WBC | PLATELET COUNT [4]: 1213.67 x10E3/uL | ALANINE AMINOTRANSFERASE [4]: 48 u/L | ALBUMIN [4]: 4.33 G/DL | ALKALINE PHOSPHATASE [4]: 380 u/L | ASPARTATE AMINOTRANSFERASE [4]: 78.67 u/L | BLOOD UREA NITROGEN [4]: 19 mg/dL | CARBON DIOXIDE [4]: 29 mmol/L | CHLORIDE [4]: 100.67 MEQ/L | CHOLESTEROL [4]: 74.33 mg/dL | CREATINE PHOSPHOKINASE [4]: 277.67 u/L | CREATININE [4]: 0.24 mg/dL | GLUCOSE [4]: 147 mg/dL | LACTATE DEHYDROGENASE [4]: 321.33 u/L | LIPASE [4]: 9.33 u/L | PHOSPHORUS [4]: 10.77 mg/dL | POTASSIUM [4]: 6.44 MEQ/L | SODIUM [4]: 143.33 MEQ/L | TOTAL BILIRUBIN [4]: 0.2 mg/dL | TOTAL PROTEIN [4]: 6.2 G/DL | URIC ACID [4]: 1.5 mg/dL | ABSOLUTE BASOPHIL [5]: 50 cells/µL | ABSOLUTE EOSINOPHIL [5]: 43.3 cells/µL | ABSOLUTE LYMPHOCYTE [5]: 9670 cells/µL | ABSOLUTE MONOCYTE [5]: 210 cells/µL | BASOPHIL [5]: 0.4% | EOSINOPHIL [5]: 0.37% | ERYTHROCYTE COUNT [5]: 6.82 x10E6/uL | HEMATOCRIT [5]: 46.77% | HEMOGLOBIN [5]: 14.53 G/DL | LEUKOCYTE COUNT [5]: 11.77 x10E3/uL | LYMPHOCYTE [5]: 82.1% | MEAN CORPUSCULAR HEMOGLOBIN [5]: 21.33 pg | MEAN CORPUSCULAR HEMOGLOBIN CONCENTRATION [5]: 31.13 G/DL | MEAN CORPUSCULAR VOLUME [5]: 68.57 fL | MONOCYTE [5]: 1.8% | NEUTROPHIL [5]: 14.83% | PLATELET COUNT [5]: 1303.33 x10E3/uL | ALANINE AMINOTRANSFERASE [5]: 46.67 u/L | ALBUMIN [5]: 4.17 G/DL | ALKALINE PHOSPHATASE [5]: 530 u/L | ASPARTATE AMINOTRANSFERASE [5]: 81.33 u/L | BLOOD UREA NITROGEN [5]: 17.67 mg/dL | CARBON DIOXIDE [5]: 41.67 mmol/L | CHLORIDE [5]: 102 MEQ/L | CHOLESTEROL [5]: 70.33 mg/dL | CREATINE PHOSPHOKINASE [5]: 372.67 u/L | CREATININE [5]: 0.5 mg/dL | GLUCOSE [5]: 184 mg/dL | LIPASE [5]: 13.33 u/L | PHOSPHORUS [5]: 10.2 mg/dL
